Measured values from patent US5998173A, “Process for producing N-acetyl-D-glucosamine” (The University of Bristish Columbia, priority 1996, dated 1999).
pKi: −log10 of the molar value.

Legend:
[1] = system: Serratia marcescens QM B1466 chitinases (total chitinase activity, EC 3.2.1.14) in culture supernatant; experiment: Chitinase activity assay with pNP-(NAG)2 in the presence of increasing N-acetyl-D-glucosamine (end-product inhibition); format: biochemical; details: 40-mM NAG in the assay media, p-nitrophenyl substrate analog, 10 min
Protocol: (§1) FIG. 15a illustrates assays of chitinase (.box-solid.) and chitobiase (.diamond-solid.) in the presence of increasing amounts of N-acetyl-D-glucosamine (NAG). The activity values are expressed as percentage of the initial uninhibited values ([NAG]=0).
Chitinase activity was also determined by using the analog p-nitrophenyl-β-D-N,N'-diacetylchitobiose (pNP-(NAG)2) (Sigma). The assay was performed in triplicate using ELISA plates and contained 50 μL of 100 mM KH2 PO4 buffer containing 1-mM CaCl2 at pH 6.0, 50 μL of pNP(NAG)2 dissolved in nanopure water (400 μg/ml) and 20 μL of enzyme diluted in the same buffer. After 10 minutes of incubation samples were read at 405 nm using an ELISA plate reader. Blanks were used to discount any absorption due to the enzyme or pNP-(NAG)2 alone. The μmoles of p-nitrophenol released by the samples was calculated using a standard curve. Units of enzymatic activity were determined as the number of μmoles of p-nitrophenol released per minute under the assay conditions.
End-product inhibition was tested using p-nitrophenyl substrate-analogs to assay chitinase and chitobiase activities in the presence of increasing concentrations of N-acetyl-D-glucosamine (NAG). The results shown in FIG. 15a indicate that both activities in culture supernatant are inhibited by the end product (NAG). […]

[2] = biological target: T1, Serratia marcescens QM B1466 chitobiase (EC 3.2.1.29) in culture supernatant (Serratia marcescens, UniProt Q54468); experiment: Chitobiase activity assay with pNP-NAG in the presence of N-acetyl-D-glucosamine (end-product inhibition, Eadie-Hofstee analysis); format: biochemical
T1 construct: assaying chitobiase activity in S. marcescens culture supernatant over a wide range of substrate concentrations; endogenous in cells; host or cells: Serratia marcescens QM B1466, grown on chitin; enzyme in culture supernatant, not purified
T1 sequence (Q54468 28-885): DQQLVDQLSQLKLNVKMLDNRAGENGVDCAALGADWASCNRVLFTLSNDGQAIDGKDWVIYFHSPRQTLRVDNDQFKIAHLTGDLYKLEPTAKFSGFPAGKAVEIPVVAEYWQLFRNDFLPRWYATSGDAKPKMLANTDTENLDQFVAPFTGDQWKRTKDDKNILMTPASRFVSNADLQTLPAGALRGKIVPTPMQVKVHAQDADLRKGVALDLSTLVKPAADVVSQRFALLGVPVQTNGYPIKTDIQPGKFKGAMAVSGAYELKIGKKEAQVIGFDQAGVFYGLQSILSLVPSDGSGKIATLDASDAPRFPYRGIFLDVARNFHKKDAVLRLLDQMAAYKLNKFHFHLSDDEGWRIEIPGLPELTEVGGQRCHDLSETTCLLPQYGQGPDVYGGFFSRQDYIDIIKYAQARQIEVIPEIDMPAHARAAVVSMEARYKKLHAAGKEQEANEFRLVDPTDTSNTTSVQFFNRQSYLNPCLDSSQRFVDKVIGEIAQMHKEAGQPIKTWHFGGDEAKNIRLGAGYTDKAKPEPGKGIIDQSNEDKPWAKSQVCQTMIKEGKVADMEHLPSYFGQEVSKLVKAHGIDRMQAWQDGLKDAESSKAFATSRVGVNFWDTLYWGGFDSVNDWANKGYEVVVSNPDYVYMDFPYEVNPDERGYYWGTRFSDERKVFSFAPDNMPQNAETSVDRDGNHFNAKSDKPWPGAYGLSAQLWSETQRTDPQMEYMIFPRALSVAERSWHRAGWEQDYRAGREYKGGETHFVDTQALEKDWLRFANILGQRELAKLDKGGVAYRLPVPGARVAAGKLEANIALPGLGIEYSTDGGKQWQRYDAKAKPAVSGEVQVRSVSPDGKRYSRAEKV
Description: as §1
FIG. 15b illustrates assays of chitobiase from S. marcescens crude extracts using a range of p-nitrophenyl N-acetyl-β-D-glucosaminide concentrations with or without the addition of a fixed amount of N-acetyl-D-glucosamine (NAG). (.box-solid.) 0.00 mM NAG; (.circle-solid.) 0.21 mM NAG; (Δ) 0.42 mM NAG; (.gradient.) 0.83 mM NAG; and (.diamond-solid.) 1.67 mM NAG.
Chitobiase activity was determined by measuring the amount of p-nitrophenolreleased when an aliquot of enzyme solution (culture supernatant) was incubated with an aqueous solution of p-nitrophenyl-N-acetyl-β-D-glucosamine (pNP-NAG) (Sigma). The buffer used in this assay was 85-mM Tris(hydroxymethylaminomethane)-malate, pH 7.0. […] The liberated p-nitrophenol was spectrophotometrically measured at 405 nm in an ELISA plate reader. […]
The nature of chitobiase inhibition by N-acetyl-D-glucosamine was determined by assaying chitobiase activity in S. marcescens culture supernatant over a wide range of substrate concentrations, with and without the addition of fixed amounts of N-acetyl-D-glucosamine. […]

CC(=O)N[C@H]1C(O)O[C@H](CO)[C@@H](O)[C@@H]1O (stereo partly drawn) [N-acetyl-D-glucosamine, 2-acetamido-2-deoxy-D-glucose] was tested, and the “total chitinase activity lost” value [1] was 30%, the inhibition at 40000 µM ([2]; 10 min, pH 7, 40-mM NAG in the assay media, p-nitrophenyl substrate analog, culture supernatant, read-out: chitobiase activity drop) was 70% and the pKi ([2]; noncompetitive inhibition, substrate p-nitrophenyl N-acetyl-β-D-glucosaminide, 0-1.67 mM NAG, calculated from Eadie-Hofstee analysis, read-out: inhibition constant Ki) was 3.00.
